# Key:
# Human plasma kallikrein = Human plasma kallikrein (Homo sapiens (Human), UniProt P03952); assay: Kallikrein Assay (fluorogenic substrate Acetyl-K-P-R-AFC); type: biochemical; details: Plasma Kallikrein (PKal)
# Outline: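 Ki is derived from IC50 with the Cheng-Prusoff equation, and IC50 from the inflection point of a four-parameter logistic curve. The rate of AFC release is read with 0.5 nM purified enzyme and […] substrate at room temperature or 37 °C.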
# human Factor XIa = human Factor XIa (Homo sapiens (Human), UniProt P03951); assay: Factor XIa Assay (fluorogenic substrate GPR-AFC); type: biochemical; details: Factor XIa (FXIa)
# Sequence of human Factor XIa (P03951 388-625 limits assumed): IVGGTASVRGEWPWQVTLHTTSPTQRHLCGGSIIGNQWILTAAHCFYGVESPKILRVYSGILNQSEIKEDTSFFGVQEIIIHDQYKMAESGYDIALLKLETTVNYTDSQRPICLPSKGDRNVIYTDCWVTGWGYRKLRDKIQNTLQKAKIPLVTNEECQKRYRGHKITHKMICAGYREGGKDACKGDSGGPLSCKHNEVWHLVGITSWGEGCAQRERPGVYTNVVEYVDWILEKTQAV
# Sequence of human Factor XIa (P03951 19-387 partner limits assumed): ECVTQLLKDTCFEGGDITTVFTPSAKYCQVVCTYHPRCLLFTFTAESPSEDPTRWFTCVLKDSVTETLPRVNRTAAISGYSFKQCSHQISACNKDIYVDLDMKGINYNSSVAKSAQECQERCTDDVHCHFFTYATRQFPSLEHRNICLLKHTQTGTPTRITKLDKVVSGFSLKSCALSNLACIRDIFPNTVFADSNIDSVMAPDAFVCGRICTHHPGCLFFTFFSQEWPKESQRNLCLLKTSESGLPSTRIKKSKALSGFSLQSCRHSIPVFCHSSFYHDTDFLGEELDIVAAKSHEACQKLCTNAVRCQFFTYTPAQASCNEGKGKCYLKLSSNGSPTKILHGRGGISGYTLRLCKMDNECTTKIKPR
# Sequence of Human plasma kallikrein (P03952 391-638): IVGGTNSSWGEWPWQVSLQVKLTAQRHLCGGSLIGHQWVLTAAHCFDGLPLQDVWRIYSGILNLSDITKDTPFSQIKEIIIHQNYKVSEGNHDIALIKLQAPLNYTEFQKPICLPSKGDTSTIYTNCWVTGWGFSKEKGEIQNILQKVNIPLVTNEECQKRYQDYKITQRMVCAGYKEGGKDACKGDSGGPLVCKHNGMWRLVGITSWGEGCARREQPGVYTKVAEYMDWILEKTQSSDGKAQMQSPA
# Sequence of Human plasma kallikrein (P03952 20-390 partner): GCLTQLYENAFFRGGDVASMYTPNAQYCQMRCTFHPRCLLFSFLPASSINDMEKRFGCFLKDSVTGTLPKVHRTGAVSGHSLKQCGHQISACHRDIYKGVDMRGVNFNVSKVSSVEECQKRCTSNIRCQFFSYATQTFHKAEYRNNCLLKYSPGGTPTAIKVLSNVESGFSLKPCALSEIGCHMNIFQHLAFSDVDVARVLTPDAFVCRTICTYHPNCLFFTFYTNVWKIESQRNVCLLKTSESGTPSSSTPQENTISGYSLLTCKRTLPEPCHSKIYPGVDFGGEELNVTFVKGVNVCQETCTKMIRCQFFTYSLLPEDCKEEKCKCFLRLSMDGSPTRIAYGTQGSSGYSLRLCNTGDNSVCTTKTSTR
IC50 (Human plasma kallikrein),IC50 (human Factor XIa),SMILES
0.6 nM,25 nM,"Cc1cc([C@@H](C)n2cc(NC(=O)c3nc(-c4c(OC(F)F)ccc(Cl)c4F)cnc3CO)cn2)cnc1N1C[C@H]2C[C@H]2C1=O [Example 227, 6-(3-Chloro-6-(difluoromethoxy)-2-fluorophenyl)-3-(hydroxymethyl)-N-(1-((R)-1-(5-methyl-6-((1R,5S)-2-oxo-3-azabicyclo[3.1.0]hexan-3-yl)pyridin-3-yl)ethyl)-1H-pyrazol-4-yl)pyrazine-2-carboxamide]"
19.7 nM,1200 nM,"CCc1ncc(-c2c(C(F)F)ccc(Cl)c2F)nc1C(=O)Nc1cnn(Cc2cc(C)c(N3C[C@H]4C[C@H]4C3=O)nn2)c1 [Example 233, 6-(3-Chloro-6-(difluoromethyl)-2-fluorophenyl)-3-ethyl-N-(1-((5-methyl-6-((1R,5S)-2-oxo-3-azabicyclo[3.1.0]hexan-3-yl)pyridazin-3-yl)methyl)-1H-pyrazol-4-yl)pyrazine-2-carboxamide]"
2.6 nM,734 nM,"CCc1ncc(-c2c(C(F)F)ccc(Cl)c2F)nc1C(=O)Nc1cnn(Cc2cnc(N3C[C@H]4C[C@H]4C3=O)c3c2OCO3)c1 [Example 255, 6-(3-Chloro-6-(difluoromethyl)-2-fluorophenyl)-3-ethyl-N-(1-((4-((1R,5S)-2-oxo-3-azabicyclo[3.1.0]hexan-3-yl)-[1,3]dioxolo[4,5-c]pyridin-7-yl)methyl)-1H-pyrazol-4-yl)pyrazine-2-carboxamide]"

# Source: patent US20230286958A1, “PLASMA KALLIKREIN INHIBITORS” (Merck Sharp & Dohme LLC, priority 2020, published 2023)
